Calls of active or inactive are those of the source.

The target in one assay is T1, Exodeoxyribonuclease V (Escherichia coli (strain K12), UniProt P04993+P07648+P08394).
T1 sequence (P04993 whole entry): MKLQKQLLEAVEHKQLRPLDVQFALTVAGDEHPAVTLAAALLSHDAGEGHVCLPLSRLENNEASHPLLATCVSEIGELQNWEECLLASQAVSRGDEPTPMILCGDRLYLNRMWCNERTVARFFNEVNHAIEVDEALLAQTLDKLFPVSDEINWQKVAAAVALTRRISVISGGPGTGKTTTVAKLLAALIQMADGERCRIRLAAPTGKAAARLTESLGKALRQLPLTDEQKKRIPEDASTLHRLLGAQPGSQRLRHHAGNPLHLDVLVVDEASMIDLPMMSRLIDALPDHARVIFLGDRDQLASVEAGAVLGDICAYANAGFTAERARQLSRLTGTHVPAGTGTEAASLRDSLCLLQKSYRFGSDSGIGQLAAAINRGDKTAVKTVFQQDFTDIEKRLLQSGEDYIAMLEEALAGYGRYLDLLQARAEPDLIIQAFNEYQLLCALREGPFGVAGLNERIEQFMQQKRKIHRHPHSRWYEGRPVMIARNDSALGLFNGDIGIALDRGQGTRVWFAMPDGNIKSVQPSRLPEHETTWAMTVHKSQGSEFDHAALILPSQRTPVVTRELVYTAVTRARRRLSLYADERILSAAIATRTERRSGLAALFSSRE
T1 sequence (P07648 whole entry): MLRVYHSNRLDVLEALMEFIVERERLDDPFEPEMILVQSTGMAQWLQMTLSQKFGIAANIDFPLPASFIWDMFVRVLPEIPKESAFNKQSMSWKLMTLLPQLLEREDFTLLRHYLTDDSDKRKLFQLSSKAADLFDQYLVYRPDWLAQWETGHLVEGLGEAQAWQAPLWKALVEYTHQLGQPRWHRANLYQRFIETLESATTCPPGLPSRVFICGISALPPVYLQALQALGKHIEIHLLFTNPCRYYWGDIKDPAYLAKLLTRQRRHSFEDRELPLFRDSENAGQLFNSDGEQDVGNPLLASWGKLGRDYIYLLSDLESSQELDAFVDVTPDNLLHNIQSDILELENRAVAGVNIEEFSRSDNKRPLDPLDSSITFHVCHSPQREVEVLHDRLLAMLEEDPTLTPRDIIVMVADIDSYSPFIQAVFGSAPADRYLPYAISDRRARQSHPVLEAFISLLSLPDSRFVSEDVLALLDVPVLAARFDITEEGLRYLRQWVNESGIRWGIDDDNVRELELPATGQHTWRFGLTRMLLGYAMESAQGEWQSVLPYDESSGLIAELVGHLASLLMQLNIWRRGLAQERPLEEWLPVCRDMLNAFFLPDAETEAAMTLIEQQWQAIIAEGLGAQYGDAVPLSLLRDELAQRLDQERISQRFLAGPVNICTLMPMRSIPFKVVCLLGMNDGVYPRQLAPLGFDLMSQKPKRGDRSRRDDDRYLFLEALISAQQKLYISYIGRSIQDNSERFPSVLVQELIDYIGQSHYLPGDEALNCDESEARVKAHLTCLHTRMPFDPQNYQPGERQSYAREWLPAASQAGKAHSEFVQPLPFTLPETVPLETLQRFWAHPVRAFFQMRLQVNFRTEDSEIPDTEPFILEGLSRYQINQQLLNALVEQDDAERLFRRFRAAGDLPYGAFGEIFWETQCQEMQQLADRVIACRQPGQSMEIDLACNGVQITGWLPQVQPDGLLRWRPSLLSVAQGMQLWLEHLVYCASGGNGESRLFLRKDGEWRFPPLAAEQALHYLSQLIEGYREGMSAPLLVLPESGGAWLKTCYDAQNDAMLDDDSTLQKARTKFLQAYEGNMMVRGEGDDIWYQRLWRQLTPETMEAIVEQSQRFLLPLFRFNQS
T1 sequence (P08394 whole entry): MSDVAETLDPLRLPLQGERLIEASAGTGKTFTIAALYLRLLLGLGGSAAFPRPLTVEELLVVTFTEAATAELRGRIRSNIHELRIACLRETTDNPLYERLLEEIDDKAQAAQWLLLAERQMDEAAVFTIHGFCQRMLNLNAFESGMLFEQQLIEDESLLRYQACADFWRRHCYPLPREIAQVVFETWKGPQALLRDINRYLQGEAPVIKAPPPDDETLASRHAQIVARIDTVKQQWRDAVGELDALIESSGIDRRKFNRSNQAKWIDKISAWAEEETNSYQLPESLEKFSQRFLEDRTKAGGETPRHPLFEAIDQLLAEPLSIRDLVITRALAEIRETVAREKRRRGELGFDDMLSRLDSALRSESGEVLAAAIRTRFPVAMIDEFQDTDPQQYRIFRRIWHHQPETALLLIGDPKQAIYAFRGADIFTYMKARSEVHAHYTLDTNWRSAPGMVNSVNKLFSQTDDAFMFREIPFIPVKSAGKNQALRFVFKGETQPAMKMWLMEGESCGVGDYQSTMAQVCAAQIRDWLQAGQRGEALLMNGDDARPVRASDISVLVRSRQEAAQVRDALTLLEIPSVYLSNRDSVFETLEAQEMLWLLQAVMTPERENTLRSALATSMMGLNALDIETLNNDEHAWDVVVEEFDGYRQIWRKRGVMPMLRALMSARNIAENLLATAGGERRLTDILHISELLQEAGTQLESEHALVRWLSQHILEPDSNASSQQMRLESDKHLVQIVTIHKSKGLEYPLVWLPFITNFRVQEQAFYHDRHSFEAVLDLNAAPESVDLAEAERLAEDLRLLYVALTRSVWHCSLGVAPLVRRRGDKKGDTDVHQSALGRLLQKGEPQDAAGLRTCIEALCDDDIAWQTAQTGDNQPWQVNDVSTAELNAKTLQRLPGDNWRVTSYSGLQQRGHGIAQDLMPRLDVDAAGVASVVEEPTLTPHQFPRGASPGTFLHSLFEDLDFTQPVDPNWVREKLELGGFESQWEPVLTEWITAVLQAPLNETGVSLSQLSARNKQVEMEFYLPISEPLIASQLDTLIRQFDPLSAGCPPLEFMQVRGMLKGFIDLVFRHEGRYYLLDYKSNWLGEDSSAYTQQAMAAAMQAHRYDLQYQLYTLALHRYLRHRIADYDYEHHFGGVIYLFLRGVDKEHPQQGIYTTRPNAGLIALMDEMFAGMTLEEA
As to the kind of experiment: RecBCD inhibition via phage-restricted bacterial growth – absorbance, V66 E. coli, mutant T4 phage, counter-screen for AddAB inhibitor project, dose response (AID 492957). The assay is classed as functional, cell-based, Escherichia coli str. K-12 substr. MG1655. For orientation: The purpose of a counterscreen is to sort out artefacts and off-target activity.

A further assay concerns BJ. As to the kind of experiment: BJ-TERT-LT-ST fibroblast viability loss – cell-based, RAS-independent, luminescence, dose response (AID 1935).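 Note: BJ fibroblasts immortalized with TERT plus LT and ST oncogenes.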 The settings on record: Homo sapiens. The assay is classed as functional.

Turning to `CCCCC(=O)NC(c1ccc(N(C)C)cc1)c1ccc2cccnc2c1O` (configuration not stated), the IC50 (in general, the point on the concentration scale where inhibition reaches its midpoint) at Exodeoxyribonuclease V is > 119 µM (inactive). Further, the half-maximal effective concentration (EC50) – broadly, the concentration needed to bring the measured effect to its halfway point – with BJ is 3.17 µM (inconclusive).

Source of the values: ChEMBL document CHEMBL1201862, “PubChem BioAssay data set” (2004).
